The text below walks through data of ChEMBL document CHEMBL5046225, “Discovery and Optimization of Orally Bioavailable Phthalazone and Cinnolone Carboxylic Acid Derivatives as S1P2 Antagonists against Fibrotic Diseases” (J Med Chem, 2021).

In brackets after ≈: the same amount, converted by molar mass.

The target in data set [1] is T1, Sphingosine 1-phosphate receptor 2 (Homo sapiens, UniProt O95136). The data set is described as follows: Antagonist activity at S1P2 (unknown origin). The format is functional.
T1 sequence (O95136 whole entry): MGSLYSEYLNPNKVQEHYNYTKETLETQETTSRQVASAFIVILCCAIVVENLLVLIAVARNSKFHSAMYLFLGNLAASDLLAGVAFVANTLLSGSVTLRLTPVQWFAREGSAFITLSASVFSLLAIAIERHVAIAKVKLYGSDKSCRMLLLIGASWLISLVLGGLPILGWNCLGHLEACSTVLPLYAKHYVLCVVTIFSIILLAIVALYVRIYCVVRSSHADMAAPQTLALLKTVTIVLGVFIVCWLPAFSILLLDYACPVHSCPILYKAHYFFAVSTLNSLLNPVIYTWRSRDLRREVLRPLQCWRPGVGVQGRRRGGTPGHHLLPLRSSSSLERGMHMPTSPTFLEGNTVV
The target of data set [2] is T1, Sphingosine 1-phosphate receptor 2. The data set is described as follows: Displacement of sphingosine D-erythro [3-3H] I- phosphate from human S1P2 receptor expressed in CHO cell membrane.
The nature of data set [3]: Lipophilicity, logD of the compound at pH 7.4 by chromatographic method. The conditions noted are these: buffer.
The target of data set [4] is T1, Sphingosine 1-phosphate receptor 2. Briefly: Agonist activity at human S1P2 receptor expressed in CHO cells assessed as increase in calcium flux. (Calcium assays in cells follow changes in intracellular calcium, usually with a dye or a luminescent sensor.)
Data set [5] shares this target. Briefly: Antagonist activity at human S1P2 receptor expressed in CHO cells assessed as inhibition of calcium flux.
In data set [6] the target is Sphingosine 1-phosphate receptor 1 (Homo sapiens, UniProt P21453). Briefly: Antagonist activity at human S1P1 receptor expressed in CHO cells assessed as inhibition of calcium flux. The format is functional, cell-based.
Sphingosine 1-phosphate receptor 1, sequence (P21453 whole entry): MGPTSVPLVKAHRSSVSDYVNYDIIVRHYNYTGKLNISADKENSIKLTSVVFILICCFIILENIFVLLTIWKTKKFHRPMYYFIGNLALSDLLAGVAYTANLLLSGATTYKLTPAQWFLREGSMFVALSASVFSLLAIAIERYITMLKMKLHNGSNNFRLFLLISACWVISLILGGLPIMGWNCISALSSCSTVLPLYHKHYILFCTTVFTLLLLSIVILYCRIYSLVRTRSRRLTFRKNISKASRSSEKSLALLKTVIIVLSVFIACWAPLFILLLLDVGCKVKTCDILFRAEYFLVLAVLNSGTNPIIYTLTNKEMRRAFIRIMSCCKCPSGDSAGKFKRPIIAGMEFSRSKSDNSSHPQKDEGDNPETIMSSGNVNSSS
In data set [7] the target is T1, Sphingosine 1-phosphate receptor 2. Briefly: Antagonist activity at human S1P2 receptor expressed in CHO cells assessed as inhibition of [35S]GTPgammaS binding.
The target in the next data set is Cytochrome P450 3A4 (Homo sapiens, UniProt P08684). The data set is described as follows: Induction of CYP3A4 in human cryopreserved hepatocytes assessed as mRNA expression at 10 uM incubated for 72 hrs relative to control. The format is ADME, cell-based, Hepatocyte.
Cytochrome P450 3A4, sequence (P08684 whole entry): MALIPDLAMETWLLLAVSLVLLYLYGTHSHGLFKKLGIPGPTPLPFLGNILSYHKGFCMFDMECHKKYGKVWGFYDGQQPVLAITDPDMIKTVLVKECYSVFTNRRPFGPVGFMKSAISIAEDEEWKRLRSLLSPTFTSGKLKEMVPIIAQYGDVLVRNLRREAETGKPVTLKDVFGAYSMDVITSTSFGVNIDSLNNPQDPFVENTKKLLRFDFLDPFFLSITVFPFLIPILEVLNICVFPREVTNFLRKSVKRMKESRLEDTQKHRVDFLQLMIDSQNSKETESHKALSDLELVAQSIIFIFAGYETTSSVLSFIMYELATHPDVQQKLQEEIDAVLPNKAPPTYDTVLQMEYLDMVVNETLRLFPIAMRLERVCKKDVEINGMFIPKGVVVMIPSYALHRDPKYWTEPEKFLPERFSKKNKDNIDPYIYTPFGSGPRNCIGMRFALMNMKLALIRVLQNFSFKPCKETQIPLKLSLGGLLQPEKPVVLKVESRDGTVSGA
A further data set addresses CYP450 (Homo sapiens, UniProt P04798+P05177+P05181+P08684+P10632+P10635+P11509+P11712+P13584+P20813+P20815+P20853+P24462+P24903+P33260+P33261+P51589+P78329+P98187+Q02928+Q08477+Q16678+Q16696+Q5TCH4+Q6VVX0+Q7Z449+Q8TAV3+Q96SQ9+Q9HB55). The data set is described as follows: Inhibition of CYP450 in human liver microsomes. The format is ADME. On the technique in general: Liver microsomes are vesicles of endoplasmic reticulum, rich in cytochrome P450 enzymes.

The target of the next data set is T2, PXR (Homo sapiens, UniProt O75469).
T2 sequence (O75469 whole entry): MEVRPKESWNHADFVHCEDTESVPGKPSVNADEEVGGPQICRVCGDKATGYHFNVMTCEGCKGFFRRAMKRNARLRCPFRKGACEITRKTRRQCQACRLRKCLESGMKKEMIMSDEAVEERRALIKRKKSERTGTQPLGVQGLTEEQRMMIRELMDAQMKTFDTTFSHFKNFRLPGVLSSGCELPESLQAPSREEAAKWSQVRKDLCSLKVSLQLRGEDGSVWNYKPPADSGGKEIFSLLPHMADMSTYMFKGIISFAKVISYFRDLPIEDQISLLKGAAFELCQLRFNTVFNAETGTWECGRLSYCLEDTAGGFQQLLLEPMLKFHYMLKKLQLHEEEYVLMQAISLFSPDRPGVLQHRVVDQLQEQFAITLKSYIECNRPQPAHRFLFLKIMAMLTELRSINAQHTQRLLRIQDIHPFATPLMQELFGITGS
The data set is described as follows: Activation of PXR in human DPX2 cells at 10 uM incubated for 24 hrs relative to control. The format is ADME, cell-based. The conditions noted are these: read-out: Activity.

The target in data set [8] is T1, Sphingosine 1-phosphate receptor 2.
Another data set can be described thus: cells. The settings on record: Homo sapiens, HFL1.
In data set [9] the target is T1, Sphingosine 1-phosphate receptor 2. This is another data set of the same source.
Data set [10] is described as follows: Efflux ratio of apparent permeability across apical to basolateral side in human Caco-2 cells at pH 6.5 at 10 uM incubated for 60 mins by UHPLC analysis. The conditions noted are these: Caco-2, pH 6.5. On the technique in general: Passage across Caco-2 layers is used to estimate intestinal permeability.
Data set [11] can be described thus: Thermodynamic solubility of compound at pH 7.4. The conditions noted are these: buffer.
Data set [12] in a line: Apparent permeability across apical to basolateral side in MDCK-MDR1 cells at 10 uM incubated for 1 hr by LC-MS/MS analysis. The conditions noted are these: dog.
The nature of data set [13]: Efflux ratio of apparent permeability across apical to basolateral side in MDCK-MDR1 cells at 10 uM incubated for 1 hr by LC-MS/MS analysis. The conditions noted are these: dog.
The nature of the next data set: in vivo. The settings on record: CD1, mouse, po, 5 mg/kg.
Data set [14] can be described thus: Volume of distribution at steady state in CD1 mouse at 1 mg/kg, iv measured up to 24 hrs by LC-MS/MS analysis. The settings on record: in vivo.
The nature of data set [15]: Unbound plasma concentration in CD1 mouse at 5 mg/kg, po or 1 mg/kg, iv measured up to 24 hrs by LC-MS/MS analysis.
Data set [16] is described as follows: Half life in CD1 mouse at 1 mg/kg, iv measured up to 24 hrs by LC-MS/MS analysis. The settings on record: in vivo.
Data set [17] is described as follows: Apparent permeability across apical to basolateral side in human Caco-2 cells at pH 6.5 at 10 uM incubated for 60 mins by UHPLC analysis. The settings on record: Caco-2, pH 6.5.

`Cc1nn(C)c2nc(NNC(=O)Nc3cc(Cl)nc(Cl)c3)cc(C(C)C)c12`: in [1], the half-maximal inhibitory concentration (IC50) was 0.017 µM.
Consider `COc1cc(OC)c(NC(=O)Cc2cn(C)c3ccccc23)cc1Cl`, for which the half-maximal inhibitory concentration (IC50) was 3.79 µM in [2]; > 23.3 µM in data set [4]; > 8.13 µM in data set [5]; > 19.9 µM in data set [6]; 19.2 µM in data set [7]. The compound also displayed a chromatographic logD in [3] of 5.91.
With `COc1cc(OC)c(NC(=O)Cc2nn(CC(=O)O)c(=O)c3ccccc23)cc1Cl`, the IC50 in [6] is > 19.9 µM.
In the case of `C[C@H](C(=O)O)n1nc(Cn2cc3cc(OCC4CC4)c(Cl)cc3n2)c2ccccc2c1=O`, the Activity on Cytochrome P450 3A4 turned out to be 4.4%. The IC50 at CYP450 is > 100 µM. Moreover, the activity at 24 h, 10 µM at PXR was found to be 5.7%.
As to `CCn1nc(CC(=O)Nc2ccc(OC(F)(F)F)c(Cl)c2)c2ccccc2c1=O`, the chromatographic logD in data set [3] was 5.42. The IC50 in data set [5] worked out at 0.199 µM; in [7], 0.473 µM.
In turn, `COc1ccc(NC(=O)Cc2nn(CC(=O)O)c(=O)c3ccccc23)c(OC)c1` registered a chromatographic logD in data set [3] of 1.13. Further, the IC50 in [4] is > 23.3 µM; in data set [5], > 19.9 µM.
`COc1cc(OC)c(NC(=O)Cc2cn(CC(=O)O)c3ccccc23)cc1Cl`: the IC50 in data set [2] is 10.7 µM; in data set [4], > 23.3 µM; in [5], > 6.64 µM; in data set [6] it was > 19.9 µM; in [7], 17.7 µM. Further, the chromatographic logD in [3] was determined as 2.13.
Regarding `CCOc1cc2cn(Cc3nn(CC(=O)O)c(=O)c4ccccc34)nc2cc1Cl`, the IC50 in [8] stood at 0.023 µM; in the data set “cells”, 0.034 µM; in data set [9] it was 1.62 µM; in data set [5] it was 0.149 µM; in data set [7] it was 0.113 µM.
In the case of `COc1cc(OC)c(NC(=O)Cn2nc(CC(=O)O)c3ccccc32)cc1Cl`, the half-inhibitory concentration (IC50) in data set [2] is 2.01 µM; in [4], > 23.3 µM; in data set [5] it was 3.36 µM; in data set [6], > 19.9 µM; in [7], 8.98 µM. Moreover, the chromatographic logD in [3] is 1.86.
Take `CC(C(=O)O)c1nn(Cc2cn3cc(OCC4CC4)c(C(F)(F)F)cc3n2)c2ccccc2c1=O` (racemic): the efflux ratio at 1 h, 10 µM in data set [10] worked out at 0.4; in [13] it was 3.7. Further, in data set [11], the solubility (thermodynamic) is 221 µg/mL (≈ 454 µM). Moreover, the results for the apparent permeability from apical to basolateral (Papp A→B) at 1 h, 10 µM in data set [12] and in [17] were 2.5 ×10⁻⁶ cm/s and 15 ×10⁻⁶ cm/s, respectively. For the same compound, the IC50 in data set [8] stood at 0.005 µM; in “cells”, 0.0007 µM; in data set [9], 0.056 µM; in [5], 0.0034 µM; in data set [7], 0.051 µM. The compound also returned a Cmax at 24 h in the data set “in vivo” of 3520 ng/mL. The compound also returned a Vd at 24 h in data set [14] of 0.66 L/kg. Besides, in data set [15], the fraction unbound at 24 h stood at 0.007. The chromatographic logD in [3] is 2.99. In addition, the half-life at 24 h in data set [16] was 1.9 h.

A word on the IC50: it is the concentration that inhibits the measured activity by half. As usually defined, the chromatographic logD is a lipophilicity value derived from retention on a column. The low end stands for a more hydrophilic compound, the high end for a more lipophilic compound. For orientation: efflux ratio means a quotient of directional permeabilities that is used to spot active efflux. As a reminder, the thermodynamic solubility is solubility found after equilibrating the solid with the medium. What is called Papp A→B is how fast a substance crosses the layer from the apical side. By Cmax is commonly meant the maximum level reached in the sampled fluid or tissue. As usually defined, the Vd is the apparent volume that relates the amount in the body to the concentration in plasma or blood. Lower therefore signals little distribution into tissue. One may read the fraction unbound as free concentration divided by total concentration. The low end stands for little free substance, the high end for much free substance. In general, half-life refers to the time in which the quantity being followed falls by half.
